Data as given in PMC7587356, “High-Throughput Screening for Inhibitors of the SARS-CoV-2 Protease Using a FRET-Biosensor” (Molecules, 2020).
Where a name gives a salt, the structure may show the parent alone. Read-outs that look alike come from different tables or passages of the source.

Tests used:
[1] = biological target: T1, SARS-CoV-2 3CLpro (Severe acute respiratory syndrome coronavirus 2, UniProt P0DTD1); assay: biochemical; assay type: biochemical
[2] = biological target: T1, SARS-CoV-2 3CLpro; assay: biochemical; assay type: biochemical; parameters: Replicate_1 / Replicate_2 / mean / mean (LOPAC_screen_w_protease): unit not given here
[3] = 4 h, read-out: Replicate_1 (LOPAC screen with protease)
[4] = 4 h, read-out: Replicate_2 (LOPAC screen with protease)
[5] = 4 h, read-out: mean (LOPAC screen with protease)
[6] = 4 h, sheet LOPAC_screen_w_protease, LOPAC1280 primary screen at 5 µM, with protease, mean of the two replicates, read-out: mean
[7] = 4 h, sheet LOPAC_screen_w_protease, LOPAC1280 primary screen at 5 µM, with protease, replicate 1, read-out: Replicate_1
[8] = 4 h, sheet LOPAC_screen_w_protease, LOPAC1280 primary screen at 5 µM, with protease, replicate 2, read-out: Replicate_2
[9] = 4 h, LOPAC1280 primary screen with protease, 5 µM compound, replicate 1, read-out: Replicate_1 (LOPAC_screen_w_protease)
[10] = 4 h, LOPAC1280 primary screen with protease, 5 µM compound, replicate 2, read-out: Replicate_2 (LOPAC_screen_w_protease)
[11] = LOPAC1280 primary screen with protease, 5 µM compound, mean of two replicates
[12] = sheet LOPAC_screen_w_protease, primary screen with protease, compound at 5 µM, mean of two replicates
[13] = sheet LOPAC_screen_w_protease, primary screen with protease, compound at 5 µM, replicate 1
[14] = sheet LOPAC_screen_w_protease, primary screen with protease, compound at 5 µM, replicate 2
[15] = 4 h, sheet LOPAC_screen_w_protease, LOPAC1280 primary screen with protease, 5 µM compound, mean of the two replicates, read-out: mean
[16] = 4 h, sheet LOPAC_screen_w_protease, LOPAC1280 primary screen with protease, 5 µM compound, replicate 1, read-out: Replicate_1
[17] = 4 h, sheet LOPAC_screen_w_protease, LOPAC1280 primary screen with protease, 5 µM compound, replicate 2, read-out: Replicate_2
[18] = LOPAC1280 primary screen with protease, 5 µM compound, mean of the two replicates
[19] = LOPAC1280 primary screen with protease, 5 µM compound, replicate 1
[20] = LOPAC1280 primary screen with protease, 5 µM compound, replicate 2
[21] = sheet LOPAC_screen_w_protease, primary screen with protease, mean of two replicates
[22] = sheet LOPAC_screen_w_protease, primary screen with protease, replicate 1
[23] = sheet LOPAC_screen_w_protease, primary screen with protease, replicate 2

CN1CCc2cc(O)cc3c2[C@H]1Cc1ccc(O)c(O)c1-3 [R(−)-2-Hydroxyapomorphine]
Ratio (A/B) ([1]; EC50 with Triton X-100 / EC50 without Triton X-100, ratio greater than 2 suggests aggregation-based inhibitor): 1.1
EC50 ([1]; with 0.01% Triton X-100; mean ± SD of triplicate; 4 h, 30 °C; read-out: A) EC50 with Triton X-100): 450 ± 78 nM
EC50 ([1]; without Triton X-100; mean ± SD of triplicate; 4 h, 30 °C; read-out: B) EC50 without Triton X-100): 420 ± 101 nM

C[n+]1cc2c3c(ccc2c2ccc4cc5c(cc4c21)OCO5)OCO3 [Sanguinarine chloride]
inhibition at 5 µM [2, 3]: 46.2%
inhibition at 5 µM [2, 4]: 43.3%
inhibition at 5 µM [2, 5]: 44.8%

O=c1c(O)c(-c2ccc(O)c(O)c2)oc2cc(O)cc(O)c12 [quercetin, reference compound]
inhibition at 5 µM ([2]; read-out: inhibition of 3CLpro in the primary screen): 1.9%

NCCc1ccc(O)c(O)c1 [Dopamine hydrochloride]
inhibition at 5 µM [2, 3]: 16.2%
inhibition at 5 µM [2, 4]: 14.6%
inhibition at 5 µM [2, 5]: 15.4%

COc1cccc(OC)c1OCCNCC1CSc2ccccc2O1 (stereo not shown) [Benoxathian hydrochloride]
inhibition at 5 µM ([2]; 4 h, sheet LOPAC_screen_w_protease, primary screen with protease, compound at 5 µM, mean of two replicates, read-out: mean): 2.7%
inhibition at 5 µM ([2]; 4 h, sheet LOPAC_screen_w_protease, primary screen with protease, compound at 5 µM, replicate 1, read-out: Replicate_1): 1.96%
inhibition at 5 µM ([2]; 4 h, sheet LOPAC_screen_w_protease, primary screen with protease, compound at 5 µM, replicate 2, read-out: Replicate_2): 3.44%

Cc1nccc2c1[nH]c1ccccc12 [Harmane]
inhibition at 5 µM ([2]; 4 h, sheet LOPAC_screen_w_protease, LOPAC1280 at 5 µM, mean of two replicates, read-out: mean): 1.1%
inhibition at 5 µM ([2]; 4 h, sheet LOPAC_screen_w_protease, LOPAC1280 at 5 µM, replicate 1, read-out: Replicate_1): 2.71%
inhibition at 5 µM ([2]; 4 h, sheet LOPAC_screen_w_protease, LOPAC1280 at 5 µM, replicate 2, read-out: Replicate_2): -0.5%

C/C=C(/C)C(=O)O[C@H]1C(C)=C2[C@H]([C@@H]1OC(=O)CCCCCCC)[C@@](C)(OC(C)=O)C[C@H](OC(=O)CCC)[C@@]1(O)[C@H]2OC(=O)[C@@]1(C)O [Thapsigargin]
inhibition at 5 µM [2, 6]: 0.567%
inhibition at 5 µM [2, 7]: 2.46%
inhibition at 5 µM [2, 8]: -1.32%

S=C([S-])OC1CC2CC1C1CCCC21.[K+] [D-609 potassium]
mean ([2]; sheet LOPAC_screen_w_protease, LOPAC1280 primary screen at 5 µM, with protease, mean of two replicates): -1.918
Replicate_1 ([2]; sheet LOPAC_screen_w_protease, LOPAC1280 primary screen at 5 µM, with protease, replicate 1): -2.8235
Replicate_2 ([2]; sheet LOPAC_screen_w_protease, LOPAC1280 primary screen at 5 µM, with protease, replicate 2): -1.0122

NC(=O)c1cc(N2CC2)c([N+](=O)[O-])cc1[N+](=O)[O-] [CB 1954]
inhibition at 5 µM [2, 9]: 0.308%
inhibition at 5 µM [2, 10]: 3.06%
mean (LOPAC_screen_w_protease) [2, 11]: 1.686

CN1C(C)(C)CCCC1(C)C [Pempidine tartrate]
inhibition at 5 µM ([2]; 4 h, sheet LOPAC_screen_w_protease, primary screen with protease, mean of two replicates, read-out: mean): 2.3%
inhibition at 5 µM ([2]; 4 h, sheet LOPAC_screen_w_protease, primary screen with protease, replicate 1, read-out: Replicate_1): 2.5%
inhibition at 5 µM ([2]; 4 h, sheet LOPAC_screen_w_protease, primary screen with protease, replicate 2, read-out: Replicate_2): 2.11%

COc1ccc2c(c1O)-c1cccc3c1[C@@H](C2)N(C)CC3.Cl [R(-)-Apocodeine hydrochloride]
mean ([2]; sheet LOPAC_screen_w_protease, LOPAC1280 primary screen with protease, 5 µM compound, mean of the two replicates): 6.058
Replicate_1 ([2]; sheet LOPAC_screen_w_protease, LOPAC1280 primary screen with protease, 5 µM compound, replicate 1): 6.597
Replicate_2 ([2]; sheet LOPAC_screen_w_protease, LOPAC1280 primary screen with protease, 5 µM compound, replicate 2): 5.52

[N-]=[N+]=Nc1ccc(C(=O)CSC[C@H](NC(=O)CC[C@H](N)C(=O)O)C(=O)NCC(=O)O)cc1 [S-(p-Azidophenacyl)glutathione]
mean [2, 12]: 2.647
Replicate_1 [2, 13]: 2.672
Replicate_2 [2, 14]: 2.621

NC(=O)CI [Iodoacetamide]
mean (LOPAC screen with protease) ([2]; sheet LOPAC_screen_w_protease, primary screen at 5 µM, mean of two replicates): 17.6073
Replicate_1 (LOPAC screen with protease) ([2]; sheet LOPAC_screen_w_protease, primary screen at 5 µM, replicate 1): 16.5057
Replicate_2 (LOPAC screen with protease) ([2]; sheet LOPAC_screen_w_protease, primary screen at 5 µM, replicate 2): 18.7088

CC(=O)OCC1=C(C(=O)O)N2C(=O)[C@@H](NC(=O)Cc3cccs3)[C@H]2SC1 [Cephalothin sodium]
inhibition at 5 µM [2, 15]: 5.22%
inhibition at 5 µM [2, 16]: 4.83%
inhibition at 5 µM [2, 17]: 5.61%

O=C(C1CCCCC1)N1CC(=O)N2CCc3ccccc3C2C1 (stereo not shown) [Praziquantel]
inhibition at 5 µM ([2]; 4 h, sheet LOPAC_screen_w_protease, primary screen of LOPAC1280 at 5 µM with protease, mean of the two replicates, read-out: mean): 3.73%
inhibition at 5 µM ([2]; 4 h, sheet LOPAC_screen_w_protease, primary screen of LOPAC1280 at 5 µM with protease, replicate 1, read-out: Replicate_1): 3.31%
inhibition at 5 µM ([2]; 4 h, sheet LOPAC_screen_w_protease, primary screen of LOPAC1280 at 5 µM with protease, replicate 2, read-out: Replicate_2): 4.15%

COc1ccc2[nH]cc(CCN)c2c1.Cl [O-Methylserotonin hydrochloride]
mean (LOPAC_screen_w_protease) [2, 18]: 2.11
Replicate_1 (LOPAC_screen_w_protease) [2, 19]: 3.3171
Replicate_2 (LOPAC_screen_w_protease) [2, 20]: 0.9034

CCNC(=O)[C@H]1O[C@@H](n2cnc3c(NCc4ccccc4)ncnc32)[C@H](O)[C@@H]1O [N6-Benzyl-5'-N-ethylcarboxamidoadenosine]
mean ([2]; sheet LOPAC_screen_w_protease, LOPAC1280 at 5 µM, mean of two replicates): 1.239
Replicate_1 ([2]; sheet LOPAC_screen_w_protease, LOPAC1280 at 5 µM, replicate 1): -0.1675
Replicate_2 ([2]; sheet LOPAC_screen_w_protease, LOPAC1280 at 5 µM, replicate 2): 2.645

O=C1NCN(c2ccccc2)C12CCN(CC1COc3ccccc3O1)CC2 (stereo not shown) [Spiroxatrine]
inhibition at 5 µM [2, 6]: 0.522%
inhibition at 5 µM [2, 7]: 1.86%
inhibition at 5 µM [2, 8]: -0.819%

O=C(O)CCC/C=C\C[C@@H]1[C@@H](/C=C/[C@H](O)C2Cc3ccccc3C2)[C@@H](F)C[C@@H]1O [AL-8810]
Replicate_1 [2]: 0.247
Replicate_2 [2]: 1.148
mean [2]: 0.6974

COc1ccc2c(c1OC)C(=O)OC2C1c2cc3c(cc2CCN1C)OCO3 (single isomer, unassigned; (+)) [(+)-Hydrastine]
inhibition at 5 µM [2, 9]: 2.51%
inhibition at 5 µM [2, 10]: 0.711%
mean (LOPAC_screen_w_protease) [2, 11]: 1.61

CCCCCCCC/C=C\CCCCCCCC(=O)NCCc1ccc(O)c(O)c1 [N-Oleoyldopamine]
mean (LOPAC_screen_w_protease) [2, 18]: 2.025
Replicate_1 (LOPAC_screen_w_protease) [2, 19]: 0.1379
Replicate_2 (LOPAC_screen_w_protease) [2, 20]: 3.912

Br.Br.N=C(N)SCCN
mean (LOPAC_screen_w_protease) [2, 18]: 2.032
Replicate_1 (LOPAC_screen_w_protease) [2, 19]: 2.956
Replicate_2 (LOPAC_screen_w_protease) [2, 20]: 1.108

CC(=O)Oc1ccccc1C(=O)O [Acetylsalicylic acid]
inhibition at 5 µM [2, 9]: 1.9%
inhibition at 5 µM [2, 10]: 1.38%
mean (LOPAC_screen_w_protease) [2, 11]: 1.637

O=c1[nH]c(=O)n([C@H]2C[C@H](O)[C@@H](CO)O2)cc1/C=C/Br [(E)-5-(2-Bromovinyl)-2'-deoxyuridine]
mean ([2]; sheet LOPAC_screen_w_protease, primary screen of LOPAC1280 at 5 µM with protease, mean of the two replicates): 3.159
Replicate_1 ([2]; sheet LOPAC_screen_w_protease, primary screen of LOPAC1280 at 5 µM with protease, replicate 1): 2.158
Replicate_2 ([2]; sheet LOPAC_screen_w_protease, primary screen of LOPAC1280 at 5 µM with protease, replicate 2): 4.161

Nc1ncnc2c1ncn2C1CCCC1 [9-cyclopentyladenine]
mean [2, 12]: 2.587
Replicate_1 [2, 13]: 2.53
Replicate_2 [2, 14]: 2.643

C=C/C(C)=C/[C@@]1(C)SC(=O)C(C)=C1O [Thiolactomycin]
inhibition at 5 µM [2, 15]: 4.16%
inhibition at 5 µM [2, 16]: 2.88%
inhibition at 5 µM [2, 17]: 5.43%

Cc1ccc(O)c(N=Nc2ccccc2)n1 [SIB 1757]
mean [2, 21]: 2.268
Replicate_1 [2, 22]: 3.235
Replicate_2 [2, 23]: 1.301

Cl.Clc1ccc(N2CCN(Cc3c[nH]c4ncccc34)CC2)cc1 [L-745,870 hydrochloride]
mean (LOPAC_screen_w_protease) [2, 11]: 1.375
Replicate_1 (LOPAC_screen_w_protease) [2, 19]: 2.129
Replicate_2 (LOPAC_screen_w_protease) [2, 20]: 0.6216

CC(N)c1cccc(Cl)c1Cl.Cl (racemic)
mean [2, 21]: 2.411
Replicate_1 [2, 22]: 4.03
Replicate_2 [2, 23]: 0.7923

CCN1C(=O)C=CC1=O [N-Ethylmaleimide]
inhibition at 5 µM [2, 9]: 5.02%
inhibition at 5 µM [2, 10]: -1.33%
mean (LOPAC_screen_w_protease) [2, 18]: 1.849

CC(C)NCC(O)COc1cccc2[nH]ccc12 (stereo not drawn) [S(-)-Pindolol]
mean (LOPAC_screen_w_protease) [2, 18]: 1.809
Replicate_1 (LOPAC_screen_w_protease) [2, 19]: 1.519
Replicate_2 (LOPAC_screen_w_protease) [2, 20]: 2.1
mean ([2]; sheet LOPAC_screen_w_protease, primary screen with protease, 5 µM, mean of two replicates): 0.4162
Replicate_1 ([2]; sheet LOPAC_screen_w_protease, primary screen with protease, 5 µM, replicate 1): 1.799
Replicate_2 ([2]; sheet LOPAC_screen_w_protease, primary screen with protease, 5 µM, replicate 2): -0.9667

CC1(C)CCC2=C(O1)c1ccccc1C(=O)C2=O [beta-Lapachone]
inhibition at 5 µM ([2]; 4 h, read-out: Replicate_1): 0.593%
inhibition at 5 µM ([2]; 4 h, read-out: Replicate_2): 0.52%
inhibition at 5 µM ([2]; 4 h, read-out: mean): 0.557%
